Our source for the IC50 values is ChEMBL document CHEMBL5360622, “Leucettinibs, a Class of DYRK/CLK Kinase Inhibitors Inspired by the Marine Sponge Natural Product Leucettamine B” (J Med Chem, 2023).

A value given as a limit tells only on which side of the number the result lay.

Assay [1] has as its target T1, Dual specificity tyrosine-phosphorylation-regulated kinase 3 (Homo sapiens, UniProt O43781).
T1 sequence (O43781 whole entry): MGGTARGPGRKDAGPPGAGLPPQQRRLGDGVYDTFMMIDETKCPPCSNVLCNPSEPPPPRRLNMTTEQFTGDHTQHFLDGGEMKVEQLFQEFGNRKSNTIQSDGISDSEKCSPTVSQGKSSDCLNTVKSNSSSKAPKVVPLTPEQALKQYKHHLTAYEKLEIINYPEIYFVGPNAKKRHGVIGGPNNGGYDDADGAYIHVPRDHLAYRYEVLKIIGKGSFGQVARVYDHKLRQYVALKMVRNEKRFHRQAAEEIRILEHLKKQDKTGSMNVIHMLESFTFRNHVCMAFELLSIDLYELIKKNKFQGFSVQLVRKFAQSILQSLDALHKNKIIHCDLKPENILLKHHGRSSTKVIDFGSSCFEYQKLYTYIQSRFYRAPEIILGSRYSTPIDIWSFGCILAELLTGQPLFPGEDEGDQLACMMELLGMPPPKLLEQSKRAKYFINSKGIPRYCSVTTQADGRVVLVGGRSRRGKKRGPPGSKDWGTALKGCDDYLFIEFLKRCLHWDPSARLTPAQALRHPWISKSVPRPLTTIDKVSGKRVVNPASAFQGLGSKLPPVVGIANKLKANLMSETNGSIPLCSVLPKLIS

Assay [2] concerns the target Dual specificity protein kinase CLK4 (Homo sapiens, UniProt Q9HAZ1).
Assay [3] addresses Cyclin-dependent kinase 5/CDK5 activator 1 (Homo sapiens, UniProt Q00535). The class given is cell-based, Sf9.
In assay [4] the target is T2, Dual specificity tyrosine-phosphorylation-regulated kinase 2 (Homo sapiens, UniProt Q92630).
T2 sequence (Q92630 whole entry): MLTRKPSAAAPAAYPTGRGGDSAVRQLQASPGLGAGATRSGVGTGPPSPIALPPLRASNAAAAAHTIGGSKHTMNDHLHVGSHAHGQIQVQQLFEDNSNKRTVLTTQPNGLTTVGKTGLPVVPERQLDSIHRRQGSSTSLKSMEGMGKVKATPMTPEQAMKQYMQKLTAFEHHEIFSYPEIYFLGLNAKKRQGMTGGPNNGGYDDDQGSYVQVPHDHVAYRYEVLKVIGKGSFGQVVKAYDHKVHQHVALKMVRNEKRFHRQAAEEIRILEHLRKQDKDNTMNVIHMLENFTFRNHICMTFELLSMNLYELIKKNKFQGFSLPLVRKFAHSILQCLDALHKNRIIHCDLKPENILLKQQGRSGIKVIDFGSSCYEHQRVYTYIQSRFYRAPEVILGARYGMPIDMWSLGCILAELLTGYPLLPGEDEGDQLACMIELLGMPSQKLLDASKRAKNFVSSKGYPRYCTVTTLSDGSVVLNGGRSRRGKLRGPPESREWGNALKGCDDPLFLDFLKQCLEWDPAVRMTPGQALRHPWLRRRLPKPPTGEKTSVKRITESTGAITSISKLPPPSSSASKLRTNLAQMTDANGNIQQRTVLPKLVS

Assay [5] has as its target Dual specificity protein kinase CLK2 (Homo sapiens, UniProt P49760).
Assay [6] addresses Glycogen synthase kinase-3 beta (Homo sapiens, UniProt P49841). The class given is cell-based, Sf9.
Assay [7] concerns the target Casein kinase I isoform epsilon (Homo sapiens, UniProt P49674).
The target in assay [8] is Dual specificity protein kinase CLK3 (Homo sapiens, UniProt P49761). Type of assay: cell-based, Sf9.
For assay [9], the target named is T3, Dual specificity tyrosine-phosphorylation-regulated kinase 4 (Homo sapiens, UniProt Q9NR20).
T3 sequence (Q9NR20 whole entry): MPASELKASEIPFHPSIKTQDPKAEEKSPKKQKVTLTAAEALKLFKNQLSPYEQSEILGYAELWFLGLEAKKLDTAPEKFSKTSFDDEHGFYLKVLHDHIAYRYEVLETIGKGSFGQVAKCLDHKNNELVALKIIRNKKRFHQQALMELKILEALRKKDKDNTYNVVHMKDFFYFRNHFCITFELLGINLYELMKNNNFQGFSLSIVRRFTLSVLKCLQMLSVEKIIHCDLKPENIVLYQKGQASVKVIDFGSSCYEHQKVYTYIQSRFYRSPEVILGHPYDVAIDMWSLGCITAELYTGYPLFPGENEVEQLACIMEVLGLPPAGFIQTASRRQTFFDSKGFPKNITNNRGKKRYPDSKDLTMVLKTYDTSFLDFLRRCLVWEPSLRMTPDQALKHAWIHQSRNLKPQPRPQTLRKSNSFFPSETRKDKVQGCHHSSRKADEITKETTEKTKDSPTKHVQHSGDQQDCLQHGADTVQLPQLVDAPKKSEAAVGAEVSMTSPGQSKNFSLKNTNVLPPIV

Cyclin-dependent kinase 5/CDK5 activator 1, sequence (Q00535 whole entry): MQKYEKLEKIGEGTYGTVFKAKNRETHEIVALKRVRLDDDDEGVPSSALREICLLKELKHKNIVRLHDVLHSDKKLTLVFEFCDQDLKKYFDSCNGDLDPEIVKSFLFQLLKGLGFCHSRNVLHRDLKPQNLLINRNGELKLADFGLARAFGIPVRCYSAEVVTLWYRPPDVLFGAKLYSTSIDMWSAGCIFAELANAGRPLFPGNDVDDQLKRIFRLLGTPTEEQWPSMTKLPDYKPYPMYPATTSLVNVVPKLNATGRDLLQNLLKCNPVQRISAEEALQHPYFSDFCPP
Cyclin-dependent kinase 5/CDK5 activator 1, sequence (Q15078 whole entry, further chain): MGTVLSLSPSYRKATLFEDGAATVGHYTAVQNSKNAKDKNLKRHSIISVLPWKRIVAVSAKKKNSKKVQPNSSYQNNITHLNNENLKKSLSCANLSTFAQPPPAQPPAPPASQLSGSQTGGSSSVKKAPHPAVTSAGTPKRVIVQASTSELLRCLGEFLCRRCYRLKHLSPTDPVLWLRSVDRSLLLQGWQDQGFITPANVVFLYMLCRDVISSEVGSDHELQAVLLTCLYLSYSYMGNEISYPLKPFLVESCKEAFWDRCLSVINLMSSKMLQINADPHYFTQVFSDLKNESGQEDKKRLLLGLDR
Dual specificity protein kinase CLK3, sequence (P49761 whole entry): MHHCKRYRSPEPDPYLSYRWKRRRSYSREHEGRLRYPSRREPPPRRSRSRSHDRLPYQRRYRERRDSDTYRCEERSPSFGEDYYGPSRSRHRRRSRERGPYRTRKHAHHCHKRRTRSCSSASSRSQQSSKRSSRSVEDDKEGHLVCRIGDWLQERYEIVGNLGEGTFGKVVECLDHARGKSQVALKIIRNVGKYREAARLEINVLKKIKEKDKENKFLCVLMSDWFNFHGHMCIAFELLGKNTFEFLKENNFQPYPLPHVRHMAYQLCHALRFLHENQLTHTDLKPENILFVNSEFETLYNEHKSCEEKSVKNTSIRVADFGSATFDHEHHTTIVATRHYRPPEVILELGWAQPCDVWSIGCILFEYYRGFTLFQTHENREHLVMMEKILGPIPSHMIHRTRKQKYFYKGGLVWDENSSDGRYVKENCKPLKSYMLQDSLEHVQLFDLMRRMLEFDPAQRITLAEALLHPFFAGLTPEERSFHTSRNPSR
Dual specificity protein kinase CLK4, sequence (Q9HAZ1 whole entry): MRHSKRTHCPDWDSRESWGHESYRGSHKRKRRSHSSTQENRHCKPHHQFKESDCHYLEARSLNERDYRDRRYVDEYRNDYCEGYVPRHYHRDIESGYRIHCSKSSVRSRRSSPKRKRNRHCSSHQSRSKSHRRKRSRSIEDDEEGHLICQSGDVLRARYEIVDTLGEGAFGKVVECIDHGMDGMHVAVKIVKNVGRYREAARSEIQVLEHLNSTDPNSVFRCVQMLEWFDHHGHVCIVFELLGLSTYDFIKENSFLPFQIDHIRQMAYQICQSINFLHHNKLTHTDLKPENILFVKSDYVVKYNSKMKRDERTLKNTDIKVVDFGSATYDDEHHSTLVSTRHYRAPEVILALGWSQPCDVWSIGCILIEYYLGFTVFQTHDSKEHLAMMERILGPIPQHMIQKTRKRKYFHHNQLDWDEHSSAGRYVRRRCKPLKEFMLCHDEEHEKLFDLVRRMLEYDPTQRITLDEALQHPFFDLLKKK
Casein kinase I isoform epsilon, sequence (P49674 whole entry, canonical isoform): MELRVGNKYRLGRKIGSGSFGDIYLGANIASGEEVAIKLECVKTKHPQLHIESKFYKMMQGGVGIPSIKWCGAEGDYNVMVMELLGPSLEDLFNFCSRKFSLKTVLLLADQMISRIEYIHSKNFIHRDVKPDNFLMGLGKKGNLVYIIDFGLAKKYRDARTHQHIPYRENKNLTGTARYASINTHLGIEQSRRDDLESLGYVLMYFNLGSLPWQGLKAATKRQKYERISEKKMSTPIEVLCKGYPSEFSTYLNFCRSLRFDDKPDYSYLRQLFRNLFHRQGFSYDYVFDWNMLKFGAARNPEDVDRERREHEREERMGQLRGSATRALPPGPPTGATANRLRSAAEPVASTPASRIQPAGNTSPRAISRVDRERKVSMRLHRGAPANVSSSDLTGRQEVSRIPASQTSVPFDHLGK
Glycogen synthase kinase-3 beta, sequence (P49841 whole entry, canonical isoform): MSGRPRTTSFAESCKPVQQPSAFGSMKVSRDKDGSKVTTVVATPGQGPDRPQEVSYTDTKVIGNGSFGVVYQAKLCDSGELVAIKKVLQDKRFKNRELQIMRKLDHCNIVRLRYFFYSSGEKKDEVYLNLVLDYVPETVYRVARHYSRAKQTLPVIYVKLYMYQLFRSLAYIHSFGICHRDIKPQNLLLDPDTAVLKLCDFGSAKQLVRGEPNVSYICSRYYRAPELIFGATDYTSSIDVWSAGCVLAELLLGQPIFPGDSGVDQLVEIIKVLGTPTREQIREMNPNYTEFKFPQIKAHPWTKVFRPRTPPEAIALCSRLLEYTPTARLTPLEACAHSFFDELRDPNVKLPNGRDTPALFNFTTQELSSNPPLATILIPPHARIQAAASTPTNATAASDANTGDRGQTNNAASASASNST
Dual specificity protein kinase CLK2, sequence (P49760 whole entry): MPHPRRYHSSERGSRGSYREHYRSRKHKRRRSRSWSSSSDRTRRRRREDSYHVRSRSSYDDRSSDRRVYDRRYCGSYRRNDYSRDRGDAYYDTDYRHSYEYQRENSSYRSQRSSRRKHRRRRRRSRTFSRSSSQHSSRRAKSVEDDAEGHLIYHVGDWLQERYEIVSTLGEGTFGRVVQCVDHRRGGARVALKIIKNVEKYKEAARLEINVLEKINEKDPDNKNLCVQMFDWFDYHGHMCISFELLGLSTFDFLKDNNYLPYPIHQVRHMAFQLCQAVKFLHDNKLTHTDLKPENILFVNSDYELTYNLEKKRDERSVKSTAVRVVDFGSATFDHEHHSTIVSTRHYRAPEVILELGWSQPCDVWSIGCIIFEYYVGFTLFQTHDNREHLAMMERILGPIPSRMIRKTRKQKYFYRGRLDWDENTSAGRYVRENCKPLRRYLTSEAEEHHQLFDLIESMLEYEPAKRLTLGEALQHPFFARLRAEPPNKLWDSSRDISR

In the case of `Cc1ccc(NC2=N/C(=C\c3ccc4ncsc4c3)C(=O)N2)cc1F`, the IC50 in assay [1] was 3060 nM; in assay [2], 71 nM; in [3], over 10000 nM; in assay [4] it was 6530 nM; in assay [5], 3520 nM; in [6], over 10000 nM. Besides, the IC50 in assay [7] and in assay [8] was over 10000 nM in each case.
Consider `O=C1NC(N[C@H]2CN3CCC2CC3)=N/C1=C\c1ccc2ncsc2c1`, for which the IC50 in [1] was 199 nM; in assay [2], 11 nM; in [3], over 10000 nM; in [5] it was 40 nM; in [6], over 10000 nM; in assay [8], 1750 nM.
Turning to `O=C1NC(Nc2ncccn2)=N/C1=C\c1ccc2ncsc2c1`, the IC50 was 4030 nM in assay [1]; 34 nM in [2]; over 10000 nM in [3]; 2390 nM in [4]; 627 nM in assay [5]; 7740 nM in assay [6]. For the same compound, the IC50 in [7] is over 10000 nM; in assay [8] it was 2260 nM.
Take `Cc1ccc(CNC2=N/C(=C\c3ccc4ncsc4c3)C(=O)N2)cc1C`: the IC50 in assay [1] was over 10000 nM; in assay [2] it was 14 nM; in [3], over 10000 nM; in assay [4], over 10000 nM; in assay [5] it was 31 nM; in assay [6], over 10000 nM. Further, the IC50 in assay [7] is over 10000 nM; in assay [8] it was 1240 nM.
Turning to `O=C1NC(N[C@@H]2c3ccccc3C[C@H]2O)=N/C1=C\c1ccc2ncsc2c1`, the 50% inhibitory concentration (IC50) in assay [2] is 11 nM; in assay [3], over 10000 nM; in assay [4], 390 nM; in assay [6], over 10000 nM; in assay [7] it was over 10000 nM; in [9], 180 nM. This compound came in with an IC50 in [8] of 2040 nM.
As for `CC(=O)OC12CC3CC(CC(NC4=N/C(=C\c5ccc6ncsc6c5)C(=O)N4)(C3)C1)C2`, the IC50 is 19 nM in assay [2]; 4660 nM in [3]; 145 nM in [4]; 14 nM in assay [5]; 2440 nM in assay [6]; over 10000 nM in [7]. Further, the IC50 amounted to 597 nM in assay [9] and 1660 nM in assay [8].
For `O=C1NC(N[C@@H](CO)CC2CCCCC2)=N/C1=C\c1ccc2ncsc2c1`, the IC50 in assay [2] is 26 nM; in [3], over 10000 nM; in [5], 100 nM; in assay [6], 3310 nM; in [7], over 10000 nM; in assay [9], 3120 nM. In assay [8], this compound showed an IC50 of 4390 nM.
Take `CN1CCC2(CC1)CC(NC1=N/C(=C\c3ccc4ncsc4c3)C(=O)N1)C2`: the IC50 in assay [1] is 403 nM; in assay [2], 107 nM; in [3], over 10000 nM; in assay [4] it was 4470 nM; in [5], 851 nM; in assay [6], over 10000 nM. Besides, the IC50 in assay [7] was over 10000 nM; in [8] it was 7460 nM.
Regarding `O=C1NC(NCc2nc3ccccc3s2)=N/C1=C\c1ccc2ncsc2c1`, the IC50 in assay [1] was over 10000 nM; in assay [2] it was 71 nM; in assay [3], over 10000 nM; in [4] it was over 10000 nM; in assay [6], 9030 nM; in [7], over 10000 nM. Moreover, the IC50 in assay [9] was over 10000 nM; in assay [8], 7010 nM.
Turning to `O=C1NC(N[C@H]2c3ccccc3C[C@@H]2O)=N/C1=C\c1ccc2ncsc2c1`, the IC50 in assay [2] is 3 nM; in assay [3], over 10000 nM; in assay [4], 1540 nM; in [6] it was 429 nM; in assay [7], over 10000 nM; in [9], 2040 nM. For the same compound, the 50% inhibitory concentration (IC50) in assay [8] was 713 nM.
Regarding `COC(=O)C1(NC2=N/C(=C\c3ccc4ncsc4c3)C(=O)N2)C2CC3CC(C2)CC1C3` (stereo not given), the IC50 is 161 nM in assay [2]; 3290 nM in assay [3]; 702 nM in assay [4]; 531 nM in assay [5]; 659 nM in assay [6]; over 10000 nM in assay [7]. Besides, the values for the IC50 in [9] and in assay [8] were 1740 nM and 167 nM, respectively.
In the case of `O=C1NC(N[C@@H](CO)Cc2ccccc2)=N/C1=C\c1ccc2ncsc2c1`, the IC50 in assay [2] was 14 nM; in assay [3], over 10000 nM; in [4], 886 nM; in assay [5] it was 90 nM; in assay [6], 2740 nM; in [7] it was over 10000 nM. The IC50 stood at 1150 nM in assay [9] and 295 nM in [8].
As for `O=C1NC(NCCc2ccccn2)=N/C1=C\c1ccc2ncsc2c1`, the IC50 in assay [2] is 34 nM; in assay [3] it was over 10000 nM; in assay [4], 1350 nM; in assay [5], 349 nM; in assay [6] it was 3710 nM; in assay [7], over 10000 nM. The IC50 was 2150 nM in assay [9] and 697 nM in assay [8].
As to `CN1CCC(NC2=N/C(=C\c3ccc4ncsc4c3)C(=O)N2)C1=O` (racemic), the IC50 in assay [1] was 2320 nM; in assay [2] it was 12 nM; in assay [3], over 10000 nM; in assay [4], 2810 nM; in assay [6], over 10000 nM; in [7], over 10000 nM. The IC50 amounted to 4890 nM in [9] and 2700 nM in assay [8].
Regarding `CO[C@H]1Cc2ccccc2[C@H]1NC1=N/C(=C\c2ccc3ncsc3c2)C(=O)N1` (racemic), the IC50 in assay [1] was over 10000 nM; in assay [2], 100 nM; in [3] it was over 10000 nM; in [4] it was 5170 nM; in assay [5], 3480 nM; in [6] it was over 10000 nM. Besides, the IC50 in assay [7] and in assay [8] was over 10000 nM in each case.
`Cc1cnc(CNC2=N/C(=C\c3ccc4ncsc4c3)C(=O)N2)cn1`: the IC50 in assay [2] is 32 nM; in assay [3] it was over 10000 nM; in assay [4], 3950 nM; in assay [5], 303 nM; in assay [6], 9030 nM; in assay [7], over 10000 nM. Further, the 50% inhibitory concentration (IC50) in [9] was determined as 8330 nM; in [8], 4140 nM.
Take `O=C1NC(N[C@@H]2CN3CCC2CC3)=N/C1=C\c1ccc2ncsc2c1`: the IC50 in assay [1] was 483 nM; in assay [2], 169 nM; in assay [3] it was over 10000 nM; in [5] it was 1170 nM; in assay [6], over 10000 nM; in assay [8], 4350 nM.
Take `CO[C@H]1CC[C@H](NC2=N/C(=C\c3ccc4ncsc4c3)C(=O)N2)CC1`: the IC50 in assay [1] was 1900 nM; in [2] it was 24 nM; in assay [3], over 10000 nM; in assay [4], 2300 nM; in [6] it was 13000 nM; in assay [7] it was over 10000 nM. Also, the IC50 amounted to 2600 nM in [9] and 880 nM in assay [8].
On to `CN1CCC(NC2=N/C(=C\c3ccc4ncsc4c3)C(=O)N2)CC1`, for which the IC50 in assay [1] was 647 nM; in [2], 78 nM; in assay [3] it was over 10000 nM; in [4] it was 7830 nM; in assay [6], over 10000 nM; in [7], over 10000 nM. Also, the values for the IC50 in assay [9] and in [8] were over 10000 nM and 3860 nM, respectively.
